Experiments:
B6 wild type mice = conditions: previously reported; cited from earlier work
[1] = test system: human naïve Vα24+ iNKT cells; experiment: Expansion of human iNKT cells; type: cell-based; conditions: 100 ng/ml; counted on day 9
Protocol: Human naïve Vα24^+ iNKT cells were cultured with autologous immature CD14^+ DCs pulsed with the indicated glycolipid at 100 ng/ml or DMSO on day 2 for 18 h. On day 3, the suspension cells were transferred to a new dish, cultured in the presence of 50 U/ml IL-2 (R & D Systems), and replenished with fresh medium every 3 days. The percentage of Vα24^+/Vβ11^+ cells was determined by flow cytometry on day 9. The total cell number after expansion was calculated with the Guava ViaCount reagent (Millipore, USA) and detected by the Guava system with CytoSoft™ software containing the ViaCount module (Millipore, USA).
As described above, glycolipid analogs with αGal were stronger immune modulators than those with αGlc in mice, especially for the comparison between 7DW8-5 and 7DW8-5-Glc. To investigate if similar trends also applied to human iNKT cells, Vα24^+ iNKT cells isolated from the peripheral blood were incubated with immature DCs pulsed with the indicated glycolipid at 100 ng/ml on day 2. After antigen removal on day 3, human iNKT cells were cultured in the presence of IL-2. The number of expanded iNKT cells was counted using the Guava ViaCount reagent on day 9.

B6 WT mice splenocytes = experiment: FACS analyses of WT mouse immune cells after glycolipid stimulation; type: in vivo; conditions: 1 μg/mouse; 3 days
Protocol: B6 WT mice treated with the indicated glycolipid (1 μg/mouse) or vehicle (1% DMSO in PBS) were sacrificed at 72 hr post-injection and their splenocytes were subjected to FACS analysis. (8A) The total splenocytes, (8B) total CD11Chi cells, (8C) CD11Chi/CD80+ cells, (8D) CD11Chi/CD86+ cells, (8E) CD4^+ T cells and (8F) CD8^+ T cells.
B6 WT or Jα18 KO mice treated with specific glycolipid (1 μg/mouse) or vehicle (1% DMSO in PBS) were sacrificed at 72 hr post-injection and their spleens were harvested. After pressing spleens through 70 um strainer and lysis of erythrocytes, the nucleated cells were resuspended in PBS buffer containing azide (0.05%) and stained with antibodies recognizing the indicated cell surface antigens for 30 min at 4° C. After washing, the splenocytes were subjected to FACS analysis. The antibodies against CD3, CD4, CD8α, CD11c, CD80, and CD86 were obtained from BD Bioscience-Pharmingen.
Next, we analyzed the expansion/activation of immune cells in WT mice 3 days after glycolipid stimulation. The numbers of total T cells, CD4^+ T and CD8^+ T cells were higher in mice treated by GSLs with αGal head than those treated by GSLs with αGlc (FIGS. 2C, 8E and 8F). This was in line with the observation that more cytokines/chemokines were induced by GSLs with αGal than GSLs with αGlc in mice (FIGS. 2A, 2B and 7). […] As compared to 7DW8-5-Glc, C1-Glc not only expanded ˜1.3 fold more splenocytes and DCs (FIGS. 8A and 8B) but also activated ˜3.5 fold more CD80^+ DCs as well as ˜3 fold more CD86^+ DCs (FIGS. 8C and 8D). The increased expansion/activation of DCs may contribute to the stronger immunogenicity triggered by C1-Glc and C34-Glc as compared to 7DW8-5-Glc in vivo.

[2] = test system: Murine DN3A4-1.2 Vα14 iNKT hybridoma cells; experiment: mCD1d vs. hCD1d swapping assay, murine iNKT cells; type: cell-based, mouse; conditions: presented by mCD1d or hCD1d; 1, 0.1, 0.01 μg/ml
Protocol: (§1) (4A) Murine DN3A4-1.2 Vα14+ iNKT hybridoma cells or (4B) C1-expanded Vα24^+ iNKT cells were pulsed with the indicated glycolipid presented by either mCD1d (A20-CD1d cells) or hCD1d (HeLa-CD1d cells) at 1, 0.1, and 0.01 μg/ml. After 18 hr, the supernatants were harvested to measure IL-2 secretion by an ELISA assay (4A) or using Beadlyte® Human Cytokine kit and Luminex® 200™ reading system (4B). Assays were performed in triplicates. 8-5 was the abbreviation of 7DW8-5.
Murine DN3A4-1.2 Vα14 iNKT hybridoma cells or C1-expanded Vα24^+ iNKT cells were pulsed with the indicated glycolipid antigen presented either by mCD1d (A20-CD1d cells) or hCD1d (HeLa-CD1d cells) at 1, 0.1, and 0.01 μg/ml. After 18 hr, the supernatants were harvested for the measurement of cytokine secretion(s). IL-2 released from Vα14^+ iNKT cells was determined by ELISA assay. IFN-γ, IL-4 and IL-2 secreted from Vα24^+ iNKT cells were detected using Beadlyte® Human Cytokine kit (Millipore, N.Y., USA) and Luminex® 200™ reading system.
To explain the species-specific responses, we examined the effects of swapping human vs. mouse CD1d molecules against human vs. murine iNKT cells on the stimulatory activities of GSLs with different glycosyl groups. […]

[3] = test system: C1-expanded Vα24+ iNKT cells; experiment: mCD1d vs. hCD1d swapping assay, human iNKT cells; type: cell-based; conditions: presented by mCD1d or hCD1d; 1, 0.1, 0.01 μg/ml
Protocol: as §1
C1-expanded Vα24^+ iNKT cells were pulsed with the indicated glycolipid antigen presented by either mCD1d (A20-CD1d cells) or hCD1d (HeLa-CD1d cells) at 1, 0.1, and 0.01 μg/ml. After 18 hr, the supernatants were harvested for the measurement of IFN-γ (12A) and IL-4 (12B) secretions. (12C) The ratio of IFN-γ over IL-4 was calculated at different concentrations of glycolipids. […]
Murine DN3A4-1.2 Vα14 iNKT hybridoma cells or C1-expanded Vα24^+ iNKT cells were pulsed with the indicated glycolipid antigen presented either by mCD1d (A20-CD1d cells) or hCD1d (HeLa-CD1d cells) at 1, 0.1, and 0.01 μg/ml. […] IL-2 released from Vα14^+ iNKT cells was determined by ELISA assay. IFN-γ, IL-4 and IL-2 secreted from Vα24^+ iNKT cells were detected using Beadlyte® Human Cytokine kit (Millipore, N.Y., USA) and Luminex® 200™ reading system. […]

## CCCCCCCCCCCCCC[C@@H](O)[C@@H](O)[C@H](CO[C@H]1O[C@H](CO)[C@H](O)[C@H](O)[C@H]1O)NC(=O)CCCCCCCCCCc1ccc(F)cc1 [Compound 7DW8-5, reference compound]
B6 wild type mice
  dose sufficient for immune stimulation: 0.1 μg/mouse

## CC[C@@H](O)[C@@H](O)[C@H](CO[C@H]1OC(CO)[C@@H](O)C(O)C1O)NC(=O)Cc1ccc(F)cc1 (some centres unmarked) [Compound 7DW8-5-Glc]
[1]
  expansion of human iNKT cells in vitro compared with 7DW8-5: significantly (p=0.0009) better

## CCCCCCCCCCCCCC[C@@H](O)[C@@H](O)[C@H](CO[C@H]1O[C@H](CO)[C@@H](O)[C@H](O)[C@@H]1O)NC(=O)CCCCCCCCCCc1ccc(F)cc1 [Compound 7DW8-5-Man]
B6 WT mice splenocytes
  expansion of immune cells in WT mice: did not expand any types of immune cells
[2]
  cytokine (IL-2) secretion from murine iNKT cells: could not stimulate
[3]
  cytokine secretion (IL-2, IFN-γ, IL-4) from human iNKT cells: could not stimulate

Reference: patent US10533034B2, “Human iNKT cell activation using glycolipids” (ACADEMIA SINICA, priority 2014, dated 2020)
